Experimental data as given in US20070129426A1, “Therapeutic drugs for arthritis” (Shanghai Ambrosia Pharmaceutical Co., Ltd., priority 2003, published 2007).

Legend:
[1] = system: adjuvant-induced arthritis of rats; assay: Adjuvant-induced arthritis of rats; type: in vivo, Male Wistar rats
Description: Experimental animal: Male Wistar rats. Body weights were about 150 g.
Method of administration: intraperitoneal injection. The dose of wedelolactone was 0.25 mg/kg or 12.5 mg/kg, prepared in 0.5% CMC. The dose of methotrexate (MTX) is 0.2 mg/kg.
Method of experiment: The animals were divided randomly into 4 groups based on their body weights. They were adapted for 3 days before experiments. The left hind planta of the rats were injected subcutaneously with 0.1 ml CFA emulsion to induce inflammation. On the Day 10, after the administration of the adjuvant, the rats were injected intraperitoneally with 5 ml/kg test compound wedelolactone for 19 continuous days. On and after the day of administration of the adjuvant, the change of thickness of the four rat paws was measured daily using a vernier caliper, and the volume of the back paw were measured using a Plethysmometer. The data from day 5, 10, 15, and 19 after administration were used for statistic analyses.

[2] = system: acute inflammation of mice ear caused by dimethylbenzene; assay: Mice ear inflammation caused by dimethylbenzene; type: in vivo, Kunming mice; conditions: 25 mg/kg i.p., 4 days; 2 h after dimethylbenzene; n=10
Description: Experimental animal: Kunming mice, body weight 18-22 g.
Method of administration: intraperitoneal injection. The doses of wedelolactone were 12.5 mg/kg and 25 mg/kg, respectively; the negative control used 0.5% CMC; the positive control used ibuprofen (25 mg/kg).
Method of experiment: The animals were divided randomly into 4 groups based on their body weights, 10 mice each group. The mice were administered with the test compound for 4 continuous days. On Day 4, both sides of the right ears of the mice were daubed evenly with 50 μl dimethylbenzene 2 hours after the administration. The left ears were not treated. The mice were left for 2 hours and then sacrificed by cervical dislocation. The ear specimens were obtained by punching both ears with a 8 mm hole-puncher. The specimens were weighed and the differences between the left and the right ears were used to evaluate the effect of the compound on the inflammation.

[3] = system: rat toes edema caused by carrageenan; assay: Rat toes edema caused by carrageenan; type: in vivo, Male Wistar rats; conditions: 25 mg/kg i.p., 7 days
Description: Experimental animal: Male Wistar rats. Body weights are about 200 g.
Method of administration: intraperitoneal injection. The dose of compound 1, 2, or 3 is 12 mg/kg, respectively. The negative control used 0.5% CMC; the positive control used ibuprofen, with a dose of 25 mg/kg.
Method of experiment: The animals were divided randomly into […] based on their body weights, […]. The 4 groups were negative control group, positive control group, compound 1 group, compound 2 group, and compound 3 group. The animals were administered daily for 7 continuous days. On Day 7, the aponeurosis of right hind toes were injected with 0.1 ml of 1% carrageenan 30 minutes after the administration. The edema of the toes at different time points after induction of the inflammation was then measured.

[4] = 0.2 mg/kg i.p., day 5 after administration
[5] = 0.2 mg/kg i.p., day 5 after administration, adjuvant-injected paw
[6] = 0.2 mg/kg i.p., day 10 after administration
[7] = 0.2 mg/kg i.p., day 10 after administration, adjuvant-injected paw
[8] = 0.2 mg/kg i.p., day 15 after administration
[9] = 0.2 mg/kg i.p., day 15 after administration, adjuvant-injected paw
[10] = 0.2 mg/kg i.p., day 19 after administration
[11] = 0.2 mg/kg i.p., day 19 after administration, adjuvant-injected paw

## CN(Cc1cnc2nc(N)nc(N)c2n1)c1ccc(C(=O)N[C@@H](CCC(=O)O)C(=O)O)cc1 [MTX, methotrexate, reference compound]
[1]; [4]
  Left front paw thickness, Day 5: 4.14 ± 0.14 mm
  Right front paw thickness, Day 5: 4.00 ± 0.10 mm
  Right hind paw thickness, Day 5: 4.89 ± 0.23 mm
  Right hind paw volume, Day 5: 1.09 ± 0.07 mL
[1]; [5]
  Left hind paw thickness, Day 5: 6.96 ± 1.97 mm
  Left hind paw volume, Day 5: 1.68 ± 0.32 mL
[1]; [6]
  Left front paw thickness, Day 10: 3.96 ± 0.10 mm
  Right front paw thickness, Day 10: 3.84 ± 0.10 mm
  Right hind paw thickness, Day 10: 4.87 ± 0.18 mm
  Right hind paw volume, Day 10: 1.00 ± 0.10 mL
[1]; [7]
  Left hind paw thickness, Day 10: 7.44 ± 1.42 mm
  Left hind paw volume, Day 10: 1.73 ± 0.23 mL
[1]; [8]
  Left front paw thickness, Day 15: 4.04 ± 0.10 mm
  Right front paw thickness, Day 15: 4.07 ± 0.13 mm
  Right hind paw thickness, Day 15: 5.04 ± 0.28 mm
  Right hind paw volume, Day 15: 1.17 ± 0.11 mL
[1]; [9]
  Left hind paw thickness, Day 15: 7.86 ± 1.36 mm
  Left hind paw volume, Day 15: 1.93 ± 0.34 mL
[1]; [10]
  Left front paw thickness, Day 19: 4.09 ± 0.11 mm
  Right front paw thickness, Day 19: 4.00 ± 0.12 mm
  Right hind paw thickness, Day 19: 4.90 ± 0.08 mm
  Right hind paw volume, Day 19: 1.19 ± 0.09 mL
[1]; [11]
  Left hind paw thickness, Day 19: 7.51 ± 1.40 mm
  Left hind paw volume, Day 19: 1.84 ± 0.26 mL
[1]; treated with MTX
  Primary inflammation of the left foot and secondary inflammation of the right foot (FIG. 2): alleviated

## CC(C)Cc1ccc(C(C)C(=O)O)cc1 (stereo not shown) [ibuprofen]
[2]
  Difference (mg) between left and right ear: 11.4 ± 3.6 mg
[3]; 1 h
  Edema index (ml) after induction of the inflammation, 1 h: 0.31 ± 0.06 mL
[3]; 2 h
  Edema index (ml) after induction of the inflammation, 2 h: 0.38 ± 0.10 mL
[3]; 4 h
  Edema index (ml) after induction of the inflammation, 4 h: 0.42 ± 0.11 mL
[3]; 6 h
  Edema index (ml) after induction of the inflammation, 6 h: 0.39 ± 0.06 mL
[3]; 24 h
  Edema index (ml) after induction of the inflammation, 24 h: 0.37 ± 0.07 mL
